Laboratory results reported in article PMC4545913, “Dual EZH2 and EHMT2 histone methyltransferase inhibition increases biological efficacy in breast cancer cells” (Clinical Epigenetics, 2015).

Key:
SPINK1 = assay: qRT-PCR of SPINK1 mRNA in MDA-MB-231 cells; type: cell-based; conditions: MDA-MB-231, multiple doses and time points
Protocol: Following compound treatment of MDA-MB-231 for 48 h (in 6-well plates), media was removed and 1.5 ml of TRIzol (Invitrogen) was added directly to lyse cells and RNA was isolated according to the manufacturer’s instructions. Reverse transcription was done using the SuperScript III First-Strand Synthesis System (Invitrogen) according to the manufacturer’s instructions. Each measurement was done in triplicate, and the List of Primers can be found in Additional file 2: Table S1. For normalisation, we have used GAPDH and RNA pol II. Experiments were also done with the ‘Fast Sybr Green Cell-to-CT™-Kit’ according to the manufacturer’s instructions (Applied Biosystem). Fifteen thousand cells per 96 well were plated, and after 24 h, treated with compounds at various concentrations.
For qRT-PCR measurements the 2x iQ SYBR Green Supermix (Bio-Rad), 200nM Primers and 0.4μl of cDNA /per 20μl reaction was used. The measurement was done in low-white 96-well plates (Bio-Rad) on a CFX96 Real-time System/C1000 Thermal Cycler (Bio-Rad) with the following protocol: 95°C for 3’; 95°C for 10’’, 56°C for 10’’, 72°C for 30’’ 42 cycles followed by a melting curve from 72°C to 95°C.

MDA-MB-231 cells [1] = assay: Clonogenic growth assay; type: cell-based; conditions: Homo sapiens; MDA-MB-231, 48 h treatment then 12 days in fresh media
Protocol: (§1) For clonogenic assays, cells were treated with compound for 48 h, media were removed and replaced with fresh media for a further 12 days to measure colony formation. For cell viability assays, lymphoma cells were plated at 20,000 cells in 200 μl per well in U-bottom 96 well plates in RPMI medium +20 % FCS. Cells were re-suspended 48 h later, diluted 10-fold in PBS + propidium iodide (PI) and the concentration of PI negative cells was counted using an Attune flow cytometer with autosampler. Breast cancer cells were seeded at a density of 10,000 cells/well in a sterile 96 clear-well plate with 150 μl of DMEM (+10 % FCS and 2 mM L-Glutamine). Each compound treatment was performed in triplicate for 72 h at concentrations of 100 nM and 1, 5, 10 and 50 μM in 100 μl of full-medium. After 72 h, 20 μl of MTT solution (3 mg of MTT Formazan, Sigma/1 ml PBS) was added to the medium and incubated for 4 h at 37 °C in a CO2 incubator. The MTT-product was solubilised with 100 μl DMSO, and for 1 h, incubated in the dark at room temperature. The optical density was read at 570 nm with PHERAstar.

MCF10a = assay: MTT cell viability assay, normal breast epithelial cell line; type: cell-based; conditions: Homo sapiens, MCF-10A, read-out: Cell growth IC50 MCF10a
Protocol: as §1

MDA-MB-231 cells [2] = assay: Caspase 3/7 activity (apoptosis); type: cell-based; conditions: MDA-MB-231, dose-dependent (Figure S2)
MDA-MB-231 cells [3] = assay: MTT cell viability assay; type: cell-based; conditions: Homo sapiens
Protocol: Fig. 1 MTT and mRNA levels in MDA-MB-231 cells after pharmacological inhibition and siRNA knockdown of EZH2 and EHMT2(G9a), individually and in combination. a Expression levels of KRT17, FBX032, JMJD3, EZH2, SPINK1 and EHMT2 were measured by qRT-PCR in the MDA-MB-231 cell line 48 h after transfection with siRNAs targeting EZH2 and EHMT2, both individually and in combination. All measurements were normalised to the fold-change (relative to GAPDH) in the mock transfection control. Error bars represent the mean ± SD of experiment performed in technical triplicate. b Expression levels of KRT17, FBX032, JMJD3 and SPINK1 were measured by qRT-PCR in the MDA-MB-231 cell line treated for 48 h with GSK343, UNC0638, and UNC0638 (at 7.5 μM) with increasing doses of GSK343. Each group has been compared to the untreated sample following normalisation to GAPDH. Error bars represent the mean ± SD of experiment performed in technical triplicate. c MTT assay for cell viability of MDA-MB-231 cells after treatment. MDA-MB-231 cells were seeded in 96 well plates. After 24 h, increasing doses of GSK343, UNC0638 or combination treatments (1, 2.5, 5, 7.5, 10 and 15 μM) were added to cells. Control was media with 0.5 % DMSO. Cell viability was measured by MTT assay after a 48-h treatment and a 24-h proliferation period. Error bars represent the mean ± SEM of five independent repeats
as §1

breast cancer cell lines = assay: MTT anti-proliferative effect on a small panel of breast cancer cell lines; type: cell-based; conditions: read-out: Anti-proliferative IC50 values, range over panel
Protocol: The anti-proliferative effect of HKMTI-1-005 on a small panel of breast cancer cell lines was determined, with IC50 values in the range 2–10 μM (Table 3). […] The breast cancer cell line BT-474, which is the cell line most sensitive to HKMTI-1-005 treatment, has the highest relative expression of EZH2, as detected by Western analysis (data not shown).
as §1, with “The MTT-product was solubilised with 100 μl DMSO, and for 1 h, incubated in the dark at room temperature.” left out

MCF-7 = assay: MTT cell viability assay; type: cell-based; conditions: Homo sapiens, MCF7, read-out: Cell growth IC50 MCF-7
Protocol: as §1

SkBr3 = assay: MTT cell viability assay; type: cell-based; conditions: Homo sapiens, SK-BR-3, read-out: Cell growth IC50 SkBr3
Protocol: as §1

BT-474 = assay: MTT cell viability assay; type: cell-based; conditions: Homo sapiens, read-out: Cell growth IC50 BT-474
Protocol: as §1

T-47D = assay: MTT cell viability assay; type: cell-based; conditions: Homo sapiens, T47D, read-out: Cell growth IC50 T-47D
Protocol: as §1

[4] = target: trimeric PRC2 complex (EZH2:EED:SUZ12) (Homo sapiens, UniProt Q15910); assay: PRC2 enzymatic assay (SPA-type), biotinylated-H3 (21–44) peptide substrate; type: biochemical; conditions: mechanism of inhibition studies (Figure S4)
Sequence of trimeric PRC2 complex (EZH2:EED:SUZ12) (Homo sapiens, UniProt Q15910) (Q15910 whole entry): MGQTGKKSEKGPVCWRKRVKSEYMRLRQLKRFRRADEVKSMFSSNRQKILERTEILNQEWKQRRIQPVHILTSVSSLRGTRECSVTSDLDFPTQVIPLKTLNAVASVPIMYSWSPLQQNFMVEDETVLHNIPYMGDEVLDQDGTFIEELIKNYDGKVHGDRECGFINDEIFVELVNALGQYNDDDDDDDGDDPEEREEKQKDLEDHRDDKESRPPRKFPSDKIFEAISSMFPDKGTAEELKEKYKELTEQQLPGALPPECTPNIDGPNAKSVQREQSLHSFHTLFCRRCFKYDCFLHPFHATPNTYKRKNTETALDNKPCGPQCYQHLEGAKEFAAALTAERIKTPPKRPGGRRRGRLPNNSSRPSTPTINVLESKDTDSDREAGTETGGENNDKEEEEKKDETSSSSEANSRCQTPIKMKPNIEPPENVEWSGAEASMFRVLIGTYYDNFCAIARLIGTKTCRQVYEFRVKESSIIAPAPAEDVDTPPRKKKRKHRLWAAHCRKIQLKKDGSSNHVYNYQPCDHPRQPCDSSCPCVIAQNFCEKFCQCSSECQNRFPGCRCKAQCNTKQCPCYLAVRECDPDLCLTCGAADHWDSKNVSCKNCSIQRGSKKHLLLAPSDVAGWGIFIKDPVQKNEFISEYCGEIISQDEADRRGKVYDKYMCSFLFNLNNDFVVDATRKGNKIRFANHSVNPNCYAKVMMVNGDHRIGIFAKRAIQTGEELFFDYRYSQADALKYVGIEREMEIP
Sequence of trimeric PRC2 complex (EZH2:EED:SUZ12) (Homo sapiens, UniProt Q15910) (O75530 whole entry partner): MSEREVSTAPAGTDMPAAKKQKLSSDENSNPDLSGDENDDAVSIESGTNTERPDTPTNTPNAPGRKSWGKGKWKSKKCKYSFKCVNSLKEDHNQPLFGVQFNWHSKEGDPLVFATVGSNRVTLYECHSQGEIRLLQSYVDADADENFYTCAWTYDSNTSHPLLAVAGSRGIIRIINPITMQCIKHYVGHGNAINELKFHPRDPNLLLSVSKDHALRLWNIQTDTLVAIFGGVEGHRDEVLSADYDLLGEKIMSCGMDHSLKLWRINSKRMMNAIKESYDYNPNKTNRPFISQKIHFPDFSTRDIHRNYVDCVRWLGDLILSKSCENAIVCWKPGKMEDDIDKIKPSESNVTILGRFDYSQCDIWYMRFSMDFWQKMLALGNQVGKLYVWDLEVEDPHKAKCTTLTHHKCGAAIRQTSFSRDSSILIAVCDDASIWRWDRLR
Sequence of trimeric PRC2 complex (EZH2:EED:SUZ12) (Homo sapiens, UniProt Q15910) (Q15022 whole entry partner): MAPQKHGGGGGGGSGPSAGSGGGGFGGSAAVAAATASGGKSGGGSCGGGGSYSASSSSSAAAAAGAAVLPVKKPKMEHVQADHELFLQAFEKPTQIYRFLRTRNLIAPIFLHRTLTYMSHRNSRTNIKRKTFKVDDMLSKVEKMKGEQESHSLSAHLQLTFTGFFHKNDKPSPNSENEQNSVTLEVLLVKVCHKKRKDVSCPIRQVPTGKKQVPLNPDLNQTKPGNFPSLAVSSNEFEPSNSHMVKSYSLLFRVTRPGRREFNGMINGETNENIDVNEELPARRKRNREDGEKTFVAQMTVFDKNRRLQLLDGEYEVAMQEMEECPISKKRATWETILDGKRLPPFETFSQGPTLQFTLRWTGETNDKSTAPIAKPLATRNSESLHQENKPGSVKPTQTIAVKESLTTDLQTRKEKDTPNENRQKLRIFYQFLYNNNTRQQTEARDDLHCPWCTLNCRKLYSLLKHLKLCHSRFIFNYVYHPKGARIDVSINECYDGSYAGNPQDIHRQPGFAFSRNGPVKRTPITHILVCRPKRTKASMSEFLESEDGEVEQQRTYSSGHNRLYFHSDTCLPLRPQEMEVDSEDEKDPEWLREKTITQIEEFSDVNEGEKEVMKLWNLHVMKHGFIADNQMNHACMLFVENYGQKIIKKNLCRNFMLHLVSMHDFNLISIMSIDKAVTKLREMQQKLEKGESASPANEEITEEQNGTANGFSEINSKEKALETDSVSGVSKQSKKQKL
Source text: (§2) A trimeric PRC2 complex (EZH2:EED:SUZ12) was employed in this assay, along with a biotinylated-H3 (21–44) peptide substrate. […] Since the peptide substrates used in these assays are poor models for the complex and dynamic structure of the chromatin substrate in cells and since the only minimal number of PRC2 proteins (EZH2:EED:SUZ12) required for enzymatically active EZH2 were employed in the PRC2 assay, care should be taken in the over interpretation of this in vitro inhibitory data.

[5] = target: trimeric PRC2 complex (EZH2:EED:SUZ12) (Homo sapiens, UniProt O75530+Q15022+Q15910); assay: as above; type: biochemical; conditions: EZH2:EED:SUZ12, biotinylated-H3 (21–44) peptide substrate
Sequence of trimeric PRC2 complex (EZH2:EED:SUZ12) (Homo sapiens, UniProt O75530+Q15022+Q15910) (Q15910 whole entry): as the sequence (Q15910 whole entry) above
Sequence of trimeric PRC2 complex (EZH2:EED:SUZ12) (Homo sapiens, UniProt O75530+Q15022+Q15910) (O75530 whole entry partner): as the sequence (O75530 whole entry partner) above
Sequence of trimeric PRC2 complex (EZH2:EED:SUZ12) (Homo sapiens, UniProt O75530+Q15022+Q15910) (Q15022 whole entry partner): as the sequence (Q15022 whole entry partner) above
Source text: as §2

IC50 (MDA-MB-231 cells [1]): 0.41 µM | IC50 (MDA-MB-231 cells [3]; MDA-MB-231, MTT (Table 3B), read-out: Cell growth IC50 MDA-MB-231): 4.3 µM | IC50 (MDA-MB-231 cells [3]; MDA-MB-231 (Table 2), read-out: Cell viability (MTT) IC50): 4.3 µM | IC50 (breast cancer cell lines): 2 to 10 µM | IC50 (MCF-7): 7.7 µM | IC50 (BT-474): 2.1 µM | IC50 (T-47D): 8.5 µM | Mechanism of PRC2 inhibition [4]: peptide substrate competitive | IC50 [5]: 24 µM
SMILES: COc1cc2nc(N3CCN(C)CC3)nc(NC3CCN(Cc4ccccc4)CC3)c2cc1OC [HKMTI-1-005]
SPINK1 expression upon treatment (SPINK1): increased | IC50 (MCF10a): > 15 µM | Induction of apoptosis measured by Caspase 3/7 activity (MDA-MB-231 cells [2]): induces apoptosis | IC50 (SkBr3): 7.7 µM
